The source of these data is patent US9012431B2, “Boron-containing small molecules as anti-inflammatory agents” (Anacor Pharmaceuticals, Inc., priority 2008, dated 2015).

A value given as a limit tells only on which side of the number the result lay.

Usually IC50 stands for the midpoint of a concentration-inhibition curve. Usually inhibition in vivo stands for the share of the control response that was lost under treatment. A higher inhibition in vivo goes with strong suppression. One may read the inhibition as the relative decrease from the control value, in per cent. A low value points to little suppression.

The subject of one assay is TNF-α. The assay can be described thus: Cytokine assay, TNF-α release from PBMC. The class given is cell-based. As to conditions: 1 μg/mL LPS; for IC50: Homo sapiens, PBMC, 24 h, supernatant at 24 hours. A digest of the protocol: (§1)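 Cryopreserved human PBMC were thawed and resuspended in RPMI 1640 with 10% FBS. Test compounds, diluted from 10 mM DMSO stocks, were applied in triplicate at 10, 1, 0.1 and 0.01 μM, and cytokine release was measured.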

Another assay has as its system IL-2. Kind of assay: Cytokine assay, IL-2 release from PBMC. As to conditions: human PBMC, 20 ug/mL PHA; for IC50: supernatant at 24 hours. The assay is classed as cell-based. A digest of the protocol: as §1
The next assay relates to IFN-γ. The assay can be described thus: Cytokine assay, IFN-γ release from PBMC. The class given is cell-based. As to conditions: human PBMC, 20 ug/mL PHA, supernatant at 24 hours. A digest of the protocol:
as §1

The next assay deals with IL-5. The assay can be described thus: Cytokine assay, IL-5 release from PBMC. The class given is cell-based. As to conditions: human PBMC, 20 ug/mL PHA; for IC50: supernatant at 48 hours. The procedure, abridged:
as §1

In a further assay the test system is IL-10. The assay can be described thus: Cytokine assay, IL-10 release from PBMC. The assay is classed as cell-based. As to conditions: human PBMC, 20 ug/mL PHA; for IC50: supernatant at 48 hours. A digest of the protocol: as §1
Assay [1] deals with T1, PDE4 partially purified from human U-937 myeloid leukemia cells.
T1 construct: PDE4 partially purified from human U-937 myeloid leukemia cells was used
Kind of assay: PDE4 Assay (enzyme from U-937 cells, [3H]cAMP). As to conditions: PDE4 from U-937 cells, Tris buffer pH 7.5, 20 minutes at 25° C. The class given is biochemical.

The next assay has as its system BALB/c male mice. Kind of assay: Oxazolone Induced Mouse Ear Edema Model. As to conditions: for inhibition in vivo at 1 mg: 1 mg/ear × 2 topical; for inhibition in vivo at 0.2 mg: 0.2 mg/ear × 2 topical; for inhibition in vivo at 3 mg: 3 mg/ear × 2 topical. The class given is in vivo. How it is done: 2. In Vivo Anti-Inflammation Activity in Oxazolone Induced Mouse Ear Edema Model
Groups of 5 BALB/c male mice weighing 23±2 g were used. The preshaved abdomens of test animals were sensitized by application of 100 μl, of 1.5% oxazolone solution dissolved in acetone. Seven days after the initial sensitization, test substances, as well as vehicle (acetone:ethanol/1:1, 20 μL/ear) were each administered topically to the anterior and posterior surfaces of the right ear 30 minutes before, and 15 minutes after, challenge by a second application of oxazolone (1% in acetone, […]) via topical route. As a positive control, indomethacin (0.3 mg/ear×2) was administered topically using the same treatment regime as for the test compounds. Twenty-four hours after the second application of oxazolone, the ear thickness of each mouse was measured with a Dyer model micrometer gauge. A 30 percent or more inhibition in ear swelling relative to the vehicle control was considered significant and indicated possible anti-inflammatory activity.

The test system of assay [2] is CD-1 (Crl.) derived male mice. Kind of assay: Phorbol Ester Induced Mouse Ear Edema Model. The assay is classed as in vivo. As to conditions: topical, 6 h; for inhibition in vivo at 1 mg: 1 mg/ear × 2 topical; for inhibition in vivo at 0.2 mg: 0.2 mg/ear × 2 topical. How it is done:
1. In Vivo Anti-Inflammation Activity in Phorbol Ester Induced Mouse Ear Edema Model
[…] Dexamethasone (1 mg/ear×2) used as the positive control was administered topically to test animals using the same application schedule. Ear swelling was then measured by a Dyer model micrometer gauge at 6 hours after PMA application as an index of inflammation. Percent inhibition was calculated according to the formula: [(Ic−It)/Ic]×100%, where Ic and It refer to increase of ear thickness (mm) in control and treated mice, respectively.

The mark [3] stands for this setting: Acetone:Ethanol/1:1, ear thickness 24 hours after second oxazolone application.
Where [4] appears, read: Acetone:Ethanol/1:1, ear swelling 6 hours after PMA.
The mark [5] stands for this setting: 95% Ethanol, ear thickness 24 hours after second oxazolone application.
Where [6] appears, read: 95% Ethanol, ear swelling 6 hours after PMA.

With `N#Cc1ccc(Oc2ccc3c(c2)COB3O)c(Cl)c1` [D4, 5-(2-Chloro-4-cyanophenoxy)-1,3-dihydro-1-hydroxy-2,1-benzoxaborole], the IC50 is under 1000 nM in the assay on TNF-α; under 1000 nM in the assay on IL-2; under 1000 nM with IFN-γ; under 1000 nM with IL-5; over 10000 nM with IL-10; under 1000 nM in assay [1]. Besides, the inhibition in vivo at 0.02 mg in the assay on BALB/c male mice (0.02 mg/ear × 2 topical, Acetone:Ethanol/1:1, ear thickness 24 hours after second oxazolone application) is under 20%. In addition, the inhibition in vivo at 1 mg with BALB/c male mice (setting [3]) lay in the range of 30 to 40%.

On to `N#Cc1ccc(Oc2ccc3c(c2)COB3O)cc1C(F)(F)F` [D5, 5-(4-Cyano-3-trifluoromethylphenoxy)-1,3-dihydro-1-hydroxy-2,1-benzoxaborole], for which the IC50 was under 1000 nM in the assay on TNF-α; 1000 to 4000 nM in the assay on IL-2; under 1000 nM in the assay on IFN-γ; under 1000 nM with IL-5; over 10000 nM in the assay on IL-10; under 1000 nM in assay [1]. Also, the inhibition in vivo at 1 mg in assay [2] (setting [4]) fell in the range of 30 to 60%; with BALB/c male mice (setting [3]), 30 to 40%.

For `COC(=O)c1cc(Oc2ccc3c(c2)COB3O)ccc1C#N` [D6, 5-(4-Cyano-3-methoxycarbonylphenoxy)-1,3-dihydro-1-hydroxy-2,1-benzoxaborole], the IC50 with TNF-α was under 1000 nM; in the assay on IL-2, under 1000 nM; in the assay with IFN-γ, under 1000 nM; with IL-5 it was 4000 to 10000 nM; in the assay on IL-10 it was 4000 to 10000 nM; in assay [1], under 1000 nM. For the same compound, the inhibition in vivo at 0.2 mg is under 30% in assay [2] (setting [4]) and under 20% in the assay with BALB/c male mice (setting [3]). The inhibition in vivo at 1 mg was 30 to 60% in assay [2] (setting [4]) and under 20% in the assay with BALB/c male mice (setting [3]).

Regarding `COC(=O)c1cc(Oc2ccc3c(c2)COB3O)ccc1C(N)=O` [D7, 5-(4-Carbamoyl-3-methoxycarbonylphenoxy)-1,3-dihydro-1-hydroxy-2,1-benzoxaborole], the IC50 (in the assay on TNF-α; in the assay on IL-2; with IFN-γ; in the assay with IL-5; in the assay on IL-10; in assay [1]) was under 1000 nM throughout. The inhibition in vivo at 1 mg/kg in assay [2] (1 mg/kg × 2 topical, Acetone:Ethanol/1:1, ear swelling 6 hours after PMA) is under 30%; in the assay with BALB/c male mice (1 mg/kg × 2 topical, Acetone:Ethanol/1:1, ear thickness 24 hours after second oxazolone application), under 20%.

In the case of `COc1cc(C#N)ccc1Oc1ccc2c(c1)COB2O` [D15, 5-(4-Cyano-2-methoxyphenoxy)-1,3-dihydro-1-hydroxy-2,1-benzoxaborole], the IC50 (in the assay on TNF-α; in the assay on IL-2; in the assay with IFN-γ; in assay [1]) was under 1000 nM in each case. The results for the inhibition in vivo at 1 mg (in assay [2] (setting [4]); with BALB/c male mice (setting [3])) were 30 to 60% and 40 to 60%, respectively.

For `CCOC(=O)COc1cc(C#N)ccc1Oc1ccc2c(c1)COB2O` [D16, 5-[4-Cyano-2-(ethoxycarbonylmethoxy)phenoxy]-1,3-dihydro-1-hydroxy-2,1-benzoxaborole], the IC50 with TNF-α is under 1000 nM; in the assay with IL-2 it was 1000 to 4000 nM; in the assay with IFN-γ it was under 1000 nM; in assay [1], under 1000 nM. This compound also yielded an inhibition in vivo at 0.2 mg in assay [2] (setting [4]) of 60 to 90%. This compound also yielded an inhibition in vivo at 1 mg in assay [2] (setting [4]) of 90 to 100%. In the assay on BALB/c male mice (setting [5]), the inhibition in vivo at 3 mg is under 20%.

For `CCOC(=O)c1ccc(Oc2ccc3c(c2)COB3O)nc1OCC` [D27, Ethyl 2-ethoxy-6-(1-hydroxy-1,3-dihydrobenzo[c][1,2]oxaborol-5-yloxy)nicotinate], the IC50 (in the assay on TNF-α; in the assay on IL-2; in the assay on IFN-γ; in assay [1]) was under 1000 nM each time. The inhibition in vivo at 3 mg with BALB/c male mice (setting [5]) lay in the range of 20 to 30%.

As for `CCOC(=O)c1cnc(Oc2ccc3c(c2)COB3O)c(Cl)c1` [D48, Ethyl 5-chloro-6-(1-hydroxy-1,3-dihydrobenzo[c][1,2]oxaborol-5-yloxy)nicotinate], the IC50 (in the assay with TNF-α; in the assay on IL-2; with IFN-γ; in assay [1]) was under 1000 nM each time. Besides, the inhibition in vivo at 0.2 mg in assay [2] (setting [4]) is under 30%; in the assay with BALB/c male mice (setting [3]), under 20%. For the same compound, the inhibition in vivo at 1 mg in assay [2] (setting [4]) was under 30%; in the assay on BALB/c male mice (setting [3]), 20 to 30%.

In the case of `O=C(O)c1ccc(Oc2ccc3c(c2)COB3O)nc1` [D61, 6-(1-Hydroxy-1,3-dihydrobenzo[c][1,2]oxaborol-5-yloxy)nicotinic acid], the inhibition at 10 µM was under 30% in the assay on TNF-α (human PBMC, 24 hours, 10 μM); under 30% in the assay with IL-2 (24 hours, 10 μM); 30 to 60% with IL-5 (48 hours, 10 μM); under 30% with IL-10 (48 hours, 10 μM). The inhibition in vivo at 0.1 mg is under 30% in assay [2] (0.1 mg/ear × 2 topical, Acetone:Ethanol/1:1, ear swelling 6 hours after PMA) and under 20% in the assay on BALB/c male mice (0.1 mg/ear × 2 topical, Acetone:Ethanol/1:1, ear thickness 24 hours after second oxazolone application). For the same compound, the inhibition in vivo at 0.2 mg in assay [2] (setting [4]) was under 30%; with BALB/c male mice (setting [3]), under 20%. Besides, the inhibition in vivo at 1 mg in assay [2] (setting [4]) is 30 to 60%; with BALB/c male mice (setting [3]) it was under 20%.

Take `COCCN(C)c1nc(Oc2ccc3c(c2)COB3O)ccc1C#N` [D96, 6-(1-hydroxy-1,3-dihydro-benzo[c][1,2]oxaborol-5-yloxy)-2-[(2-methoxy-ethyl)-methyl-amino]-nicotinonitrile]: the IC50 in the assay on TNF-α is under 1000 nM; in the assay with IL-2, under 1000 nM; with IFN-γ it was under 1000 nM; in the assay with IL-5, 1000 to 4000 nM; with IL-10, 1000 to 4000 nM; in assay [1], under 1000 nM. In addition, the inhibition in vivo at 1 mg with BALB/c male mice (setting [3]) is under 20%.

As to `CNc1nc(Oc2ccc3c(c2)COB3O)ccc1C#N` [D110, 6-(1-Hydroxy-1,3-dihydro-benzo[c][1,2]oxaborol-5-yloxy)-2-methylamino-nicotinonitrile], the IC50 was under 1000 nM in the assay on TNF-α; under 1000 nM in the assay on IL-2; under 1000 nM in the assay on IFN-γ; under 1000 nM in the assay with IL-5; over 10000 nM in the assay on IL-10; under 1000 nM in assay [1]. The same compound returned an inhibition in vivo at 0.02 mg in assay [2] (0.02 mg/ear × 2 topical, 95% Ethanol, ear swelling 6 hours after PMA) of under 30%. The compound further came in with an inhibition in vivo at 0.06 mg in assay [2] (0.06 mg/ear × 2 topical, 95% Ethanol, ear swelling 6 hours after PMA) of under 30%. Further, the inhibition in vivo at 0.2 mg in assay [2] (setting [6]) was under 30%.

In the assay with TNF-α, `COCCNc1nc(Oc2ccc3c(c2)COB3O)ccc1C#N` [D111, 6-(1-Hydroxy-1,3-dihydro-benzo[c][1,2]oxaborol-5-yloxy)-2-(2-methoxy-ethylamino)-nicotinonitrile] showed an IC50 of under 1000 nM. In assay [2] (0.015 mg/ear × 2 topical, 95% Ethanol, ear swelling 6 hours after PMA), this compound had an inhibition in vivo at 0.015 mg of under 30%. In addition, the inhibition in vivo at 0.05 mg in assay [2] (0.05 mg/ear × 2 topical, 95% Ethanol, ear swelling 6 hours after PMA) is under 30%. Also, the inhibition in vivo at 0.15 mg in assay [2] (0.15 mg/ear × 2 topical, 95% Ethanol, ear swelling 6 hours after PMA) is under 30%; in the assay on BALB/c male mice (0.15 mg/ear × 2 topical, 95% Ethanol, ear thickness 24 hours after second oxazolone application), under 20%. For the same compound, the inhibition in vivo at 1 mg in assay [2] (setting [6]) is under 30%.

As for `COc1nc(Oc2cc3c(cc2F)B(O)OC3)ccc1C#N` [D122, 6-(6-Fluoro-1-hydroxy-1,3-dihydrobenzo[c][1,2]oxaborol-5-yloxy)-2-methoxynicotinonitrile], the IC50 (in the assay with TNF-α; with IL-2; in the assay on IFN-γ; with IL-5; in the assay with IL-10; in assay [1]) was under 1000 nM in each case. The compound also gave an inhibition in vivo at 1 mg in the assay with BALB/c male mice (setting [3]) of under 20%.

The compound `COc1ccc2c(c1)c(CC(=O)O)c(C)n2C(=O)c1ccc(Cl)cc1` [Indomethacin, indomethacin, reference compound] had an inhibition in vivo at 0.3 mg in the assay on BALB/c male mice (0.3 mg/ear × 2 topical, 95% Ethanol, ear thickness 24 hours after second oxazolone application) of 40 to 60%.
